Test results published in patent US20260325540A1 (priority 2023, published 2026).

What was measured:
MERS-CoV 3CLpro = MERS-CoV 3CLpro (Middle East respiratory syndrome-related coronavirus, UniProt K9N638); experiment: biochemical; settings: MERS IC50, 75 nM MERS-CoV 3CLpro, 6 μM peptide 1 substrate, 25° C., 1.5 hrs, pH 7.5
SARS-CoV-2 3CLpro = SARS-CoV-2 3CLpro (Severe acute respiratory syndrome coronavirus 2, UniProt P0DTD1); experiment: FRET based protease assay, SARS-CoV-2 3CL; assay type: biochemical, SARS-CoV-2 (strain BetaCoV/Wuhan/WIV04/2019)

MERS-CoV 3CLpro, sequence (K9N638 3248-3553 limits assumed): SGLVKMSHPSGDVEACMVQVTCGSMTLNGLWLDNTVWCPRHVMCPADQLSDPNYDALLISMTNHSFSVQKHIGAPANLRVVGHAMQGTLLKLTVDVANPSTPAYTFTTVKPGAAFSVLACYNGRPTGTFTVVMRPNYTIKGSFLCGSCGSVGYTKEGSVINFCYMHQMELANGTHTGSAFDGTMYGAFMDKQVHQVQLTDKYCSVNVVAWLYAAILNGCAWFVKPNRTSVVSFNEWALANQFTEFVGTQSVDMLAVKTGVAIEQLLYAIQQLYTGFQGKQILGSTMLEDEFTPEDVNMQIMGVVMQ

Compound | IC50 (MERS-CoV 3CLpro) | IC50 (SARS-CoV-2 3CLpro)
N#C[C@@H]1C[C@@H]2C(=O)NC[C@@H]2CCCC[C@H](NS(=O)(=O)c2ccc(F)cc2F)C(=O)N2C[C@@H]3CCC[C@@H]3[C@H]2C(=O)N1 [Example 155] | 100 to 1000 nM | < 100 nM
CC1(C)[C@@H]2[C@H]3C(=O)N[C@H](C#N)C[C@@H]4C(=O)NC[C@@H]4CCCC[C@H](NS(=O)(=O)C4CC4)C(=O)N3C[C@@H]21 [Example 156] | < 100 nM | < 100 nM
CC1(C)[C@@H]2[C@H]3C(=O)N[C@H](C#N)C[C@@H]4C(=O)NC[C@@H]4CCCC[C@H](NS(=O)(=O)c4ccc(F)cc4F)C(=O)N3C[C@@H]21 [Example 157] | < 100 nM | < 100 nM
CC1(C)[C@@H]2[C@H]3C(=O)N[C@H](C#N)C[C@@H]4C(=O)NC[C@@H]4CCCC[C@H](NS(=O)(=O)C(F)(F)F)C(=O)N3C[C@@H]21 [Example 158] | < 100 nM | < 100 nM
CC1(C)[C@@H]2[C@H]3C(=O)N[C@H](C#N)C[C@@H]4C(=O)NC[C@@H]4CCCC[C@H](NS(=O)(=O)C4(C)CC4)C(=O)N3C[C@@H]21 [Example 159] | < 100 nM | < 100 nM
CC1(C)[C@@H]2[C@H]3C(=O)N[C@H](C#N)C[C@@H]4C(=O)NC[C@@H]4CCCC[C@H](NS(=O)(=O)C4CCC4)C(=O)N3C[C@@H]21 [Example 160] | < 100 nM | < 100 nM
CC1(C)[C@@H]2[C@H]3C(=O)N[C@H](C#N)C[C@@H]4C(=O)NC[C@@H]4CCCC[C@H](N)C(=O)N3C[C@@H]21 [Example 161] | 1000 to 20000 nM | 100 to 1000 nM
CC1(C)[C@@H]2[C@H]3C(=O)N[C@H](C#N)C[C@@H]4C(=O)NC[C@@H]4CCCC[C@H](Nc4nccc(C(F)(F)F)n4)C(=O)N3C[C@@H]21 [Example 162] | 100 to 1000 nM | < 100 nM
CC1(C)[C@@H]2[C@H]3C(=O)N[C@H](C#N)C[C@@H]4C(=O)NC[C@@H]4CCCC[C@H](Nc4cc(C(F)(F)F)ncn4)C(=O)N3C[C@@H]21 [Example 163] | 100 to 1000 nM | < 100 nM
CC1(C)[C@@H]2[C@H]3C(=O)N[C@H](C#N)C[C@@H]4C(=O)NC[C@@H]4CCCC[C@H](Nc4ccnc(C(F)(F)F)n4)C(=O)N3C[C@@H]21 [Example 164] | 100 to 1000 nM | < 100 nM
N#C[C@@H]1C[C@@H]2C(=O)NC[C@@H]2CCCC[C@H](Nc2nccc(C(F)(F)F)n2)C(=O)N2C[C@@H]3CCC[C@@H]3[C@H]2C(=O)N1 [Example 165] | 100 to 1000 nM | < 100 nM
CC(C)(C)NC(=O)[C@@H]1CCCC[C@H]2CNC(=O)[C@H]2C[C@@H](C#N)NC(=O)[C@@H]2[C@@H]3[C@H](CN2C1=O)C3(C)C [Example 166] | > 20000 nM | 1000 to 20000 nM
CC(C)(C)NC(=O)[C@H]1CCCC[C@H]2CNC(=O)[C@H]2C[C@@H](C#N)NC(=O)[C@@H]2[C@@H]3[C@H](CN2C1=O)C3(C)C [Example 167] | 1000 to 20000 nM | 100 to 1000 nM
CC(C)(C)OC(=O)NN1CCCC[C@H]2CNC(=O)[C@H]2C[C@@H](C#N)NC(=O)[C@@H]2[C@@H]3[C@H](CN2C1=O)C3(C)C [Example 168] | 1000 to 20000 nM | 1000 to 20000 nM
